Laboratory results taken from patent US20070049564A1 (Wyeth, priority 2005, published 2007).
Values after ≈ are worked out from the molar mass of the structure shown. Like-named read-outs stand apart in the source and are kept apart here.

Assays:
E. coli GC 2236 = experiment: MIC, broth microdilution; details: Escherichia coli
E. coli GC 2233 = experiment: MIC, broth microdilution; details: Escherichia coli
E. coli GC 2234 = experiment: MIC, broth microdilution; details: Escherichia coli
E. coli GC 2272 = experiment: MIC, broth microdilution; details: Escherichia coli
E. coli GC 6465 = experiment: MIC, broth microdilution; details: Escherichia coli
E. coli GC 1073 = experiment: MIC, broth microdilution; details: Escherichia coli
S. aureus GC 1131 = experiment: MIC, broth microdilution; details: Staphylococcus aureus
S. aureus GC 6466 = experiment: MIC, broth microdilution; details: Staphylococcus aureus
S. aureus GC 1079 = experiment: MIC, broth microdilution; details: Staphylococcus aureus
S. aureus GC 4536 = experiment: MIC, broth microdilution; details: Staphylococcus aureus
S. aureus GC 6469 = experiment: MIC, broth microdilution; details: Staphylococcus aureus
S. epidermidis GC 4935 = experiment: MIC, broth microdilution; details: Staphylococcus epidermidis
E. faecalis GC 4555 = experiment: MIC, broth microdilution; details: Enterococcus faecalis
E. faecalis GC 2265 = experiment: MIC, broth microdilution; details: Enterococcus faecalis
E. faecium GC 2243 = experiment: MIC, broth microdilution; details: Enterococcus faecium
S. pneumoniae+ GC 4465 = experiment: MIC, broth microdilution; details: Streptococcus pneumoniae
S. pyogenes GC 4563 = experiment: MIC, broth microdilution; details: Streptococcus pyogenes
c. albicans GC 3066 = experiment: MIC, broth microdilution
E. coli = experiment: Range of MIC for E. coli strains; details: Escherichia coli
Staph. = experiment: Range of MIC for Staph. strains, including MRSA; details: Staphylococcus aureus

MIC (E. coli GC 2236; GC2236, read-out: MINIMAL INHIBITORY CONCENTRATION MIC, pre-incubated in Human Serum): 4 µg/mL (≈ 5.48 µM) | MIC (E. coli GC 2236; GC2236, read-out: MINIMAL INHIBITORY CONCENTRATION MIC, pre-incubated in Mouse Serum): 1 µg/mL (≈ 1.37 µM) | MIC (E. coli GC 2236; GC2236, read-out: MINIMAL INHIBITORY CONCENTRATION MIC, pre-incubated in Water): 16 µg/mL (≈ 21.9 µM) | MIC (E. coli GC 2233; GC2233, read-out: MINIMAL INHIBITORY CONCENTRATION MIC, pre-incubated in Human Serum): 4 µg/mL (≈ 5.48 µM) | MIC (E. coli GC 2233; GC2233, read-out: MINIMAL INHIBITORY CONCENTRATION MIC, pre-incubated in Mouse Serum): 1 µg/mL (≈ 1.37 µM) | MIC (E. coli GC 2233; GC2233, read-out: MINIMAL INHIBITORY CONCENTRATION MIC, pre-incubated in Water): 16 µg/mL (≈ 21.9 µM) | MIC (E. coli GC 2234; GC2234, read-out: MINIMAL INHIBITORY CONCENTRATION MIC, pre-incubated in Human Serum): 4 µg/mL (≈ 5.48 µM) | MIC (E. coli GC 2234; GC2234, read-out: MINIMAL INHIBITORY CONCENTRATION MIC, pre-incubated in Mouse Serum): 0.5 µg/mL (≈ 0.685 µM) | MIC (E. coli GC 2234; GC2234, read-out: MINIMAL INHIBITORY CONCENTRATION MIC, pre-incubated in Water): 16 µg/mL (≈ 21.9 µM) | MIC (E. coli GC 2272; GC2272, read-out: MINIMAL INHIBITORY CONCENTRATION MIC, pre-incubated in Human Serum): 8 µg/mL (≈ 11 µM) | MIC (E. coli GC 2272; GC2272, read-out: MINIMAL INHIBITORY CONCENTRATION MIC, pre-incubated in Mouse Serum): 1 µg/mL (≈ 1.37 µM) | MIC (E. coli GC 2272; GC2272, read-out: MINIMAL INHIBITORY CONCENTRATION MIC, pre-incubated in Water): 16 µg/mL (≈ 21.9 µM) | MIC (E. coli GC 6465; GC6465, read-out: MINIMAL INHIBITORY CONCENTRATION MIC, pre-incubated in Human Serum): 16 µg/mL (≈ 21.9 µM) | MIC (E. coli GC 6465; GC6465, read-out: MINIMAL INHIBITORY CONCENTRATION MIC, pre-incubated in Mouse Serum): 2 µg/mL (≈ 2.74 µM) | MIC (E. coli GC 6465; GC6465, read-out: MINIMAL INHIBITORY CONCENTRATION MIC, pre-incubated in Water): > 64 µg/mL | MIC (E. coli GC 1073; GC1073, read-out: MINIMAL INHIBITORY CONCENTRATION MIC, pre-incubated in Human Serum): 8 µg/mL (≈ 11 µM) | MIC (E. coli GC 1073; GC1073, read-out: MINIMAL INHIBITORY CONCENTRATION MIC, pre-incubated in Mouse Serum): 1 µg/mL (≈ 1.37 µM) | MIC (E. coli GC 1073; GC1073, read-out: MINIMAL INHIBITORY CONCENTRATION MIC, pre-incubated in Water): 64 µg/mL (≈ 87.7 µM) | MIC (S. aureus GC 1131; GC1131, read-out: MINIMAL INHIBITORY CONCENTRATION MIC, pre-incubated in Human Serum): 0.5 µg/mL (≈ 0.685 µM) | MIC (S. aureus GC 1131; GC1131, read-out: MINIMAL INHIBITORY CONCENTRATION MIC, pre-incubated in Mouse Serum): 0.5 µg/mL (≈ 0.685 µM) | MIC (S. aureus GC 1131; GC1131, read-out: MINIMAL INHIBITORY CONCENTRATION MIC, pre-incubated in Water): 1 µg/mL (≈ 1.37 µM) | MIC (S. aureus GC 6466; GC6466, read-out: MINIMAL INHIBITORY CONCENTRATION MIC, pre-incubated in Human Serum): 0.25 µg/mL (≈ 0.343 µM) | MIC (S. aureus GC 6466; GC6466, read-out: MINIMAL INHIBITORY CONCENTRATION MIC, pre-incubated in Mouse Serum): 0.25 µg/mL (≈ 0.343 µM) | MIC (S. aureus GC 6466; GC6466, read-out: MINIMAL INHIBITORY CONCENTRATION MIC, pre-incubated in Water): 0.5 µg/mL (≈ 0.685 µM) | MIC (S. aureus GC 1079; GC1079, read-out: MINIMAL INHIBITORY CONCENTRATION MIC, pre-incubated in Human Serum): 0.12 µg/mL (≈ 0.164 µM) | MIC (S. aureus GC 1079; GC1079, read-out: MINIMAL INHIBITORY CONCENTRATION MIC, pre-incubated in Mouse Serum): 0.5 µg/mL (≈ 0.685 µM) | MIC (S. aureus GC 1079; GC1079, read-out: MINIMAL INHIBITORY CONCENTRATION MIC, pre-incubated in Water): 1 µg/mL (≈ 1.37 µM) | MIC (S. aureus GC 4536; GC4536, read-out: MINIMAL INHIBITORY CONCENTRATION MIC, pre-incubated in Human Serum): 0.5 µg/mL (≈ 0.685 µM) | MIC (S. aureus GC 4536; GC4536, read-out: MINIMAL INHIBITORY CONCENTRATION MIC, pre-incubated in Mouse Serum): 0.5 µg/mL (≈ 0.685 µM) | MIC (S. aureus GC 4536; GC4536, read-out: MINIMAL INHIBITORY CONCENTRATION MIC, pre-incubated in Water): 1 µg/mL (≈ 1.37 µM) | MIC (S. aureus GC 6469; GC6469, read-out: MINIMAL INHIBITORY CONCENTRATION MIC, pre-incubated in Human Serum): 0.5 µg/mL (≈ 0.685 µM) | MIC (S. aureus GC 6469; GC6469, read-out: MINIMAL INHIBITORY CONCENTRATION MIC, pre-incubated in Mouse Serum): 1 µg/mL (≈ 1.37 µM) | MIC (S. aureus GC 6469; GC6469, read-out: MINIMAL INHIBITORY CONCENTRATION MIC, pre-incubated in Water): 1 µg/mL (≈ 1.37 µM) | MIC (S. epidermidis GC 4935; GC4935, read-out: MINIMAL INHIBITORY CONCENTRATION MIC, pre-incubated in Human Serum): 1 µg/mL (≈ 1.37 µM) | MIC (S. epidermidis GC 4935; GC4935, read-out: MINIMAL INHIBITORY CONCENTRATION MIC, pre-incubated in Mouse Serum): 1 µg/mL (≈ 1.37 µM) | MIC (S. epidermidis GC 4935; GC4935, read-out: MINIMAL INHIBITORY CONCENTRATION MIC, pre-incubated in Water): 2 µg/mL (≈ 2.74 µM) | MIC (E. faecalis GC 4555; GC4555, read-out: MINIMAL INHIBITORY CONCENTRATION MIC, pre-incubated in Human Serum): 2 µg/mL (≈ 2.74 µM) | MIC (E. faecalis GC 4555; GC4555, read-out: MINIMAL INHIBITORY CONCENTRATION MIC, pre-incubated in Mouse Serum): 1 µg/mL (≈ 1.37 µM) | MIC (E. faecalis GC 4555; GC4555, read-out: MINIMAL INHIBITORY CONCENTRATION MIC, pre-incubated in Water): 2 µg/mL (≈ 2.74 µM) | MIC (E. faecalis GC 2265; GC2265, read-out: MINIMAL INHIBITORY CONCENTRATION MIC, pre-incubated in Human Serum): 1 µg/mL (≈ 1.37 µM) | MIC (E. faecalis GC 2265; GC2265, read-out: MINIMAL INHIBITORY CONCENTRATION MIC, pre-incubated in Mouse Serum): 0.5 µg/mL (≈ 0.685 µM) | MIC (E. faecalis GC 2265; GC2265, read-out: MINIMAL INHIBITORY CONCENTRATION MIC, pre-incubated in Water): 4 µg/mL (≈ 5.48 µM) | MIC (E. faecium GC 2243; GC2243, read-out: MINIMAL INHIBITORY CONCENTRATION MIC, pre-incubated in Human Serum): 1 µg/mL (≈ 1.37 µM) | MIC (E. faecium GC 2243; GC2243, read-out: MINIMAL INHIBITORY CONCENTRATION MIC, pre-incubated in Mouse Serum): 0.5 µg/mL (≈ 0.685 µM) | MIC (E. faecium GC 2243; GC2243, read-out: MINIMAL INHIBITORY CONCENTRATION MIC, pre-incubated in Water): 2 µg/mL (≈ 2.74 µM) | MIC (S. pneumoniae+ GC 4465; read-out: MINIMAL INHIBITORY CONCENTRATION MIC, pre-incubated in Human Serum): 2 µg/mL (≈ 2.74 µM) | MIC (S. pneumoniae+ GC 4465; read-out: MINIMAL INHIBITORY CONCENTRATION MIC, pre-incubated in Mouse Serum): 2 µg/mL (≈ 2.74 µM) | MIC (S. pneumoniae+ GC 4465; read-out: MINIMAL INHIBITORY CONCENTRATION MIC, pre-incubated in Water): 4 µg/mL (≈ 5.48 µM) | MIC (S. pyogenes GC 4563; GC4563, read-out: MINIMAL INHIBITORY CONCENTRATION MIC, pre-incubated in Human Serum): 0.25 µg/mL (≈ 0.343 µM) | MIC (S. pyogenes GC 4563; GC4563, read-out: MINIMAL INHIBITORY CONCENTRATION MIC, pre-incubated in Mouse Serum): 0.25 µg/mL (≈ 0.343 µM) | MIC (S. pyogenes GC 4563; GC4563, read-out: MINIMAL INHIBITORY CONCENTRATION MIC, pre-incubated in Water): 0.5 µg/mL (≈ 0.685 µM) | MIC (c. albicans GC 3066; Candida albicans, GC3066, read-out: MINIMAL INHIBITORY CONCENTRATION MIC): > 64 µg/mL | MINIMAL INHIBITORY CONCENTRATION MIC (c. albicans GC 3066; pre-incubated in Human Serum): >64 UG/ML | MINIMAL INHIBITORY CONCENTRATION MIC (c. albicans GC 3066; pre-incubated in Mouse Serum): >64 UG/ML | MIC (E. coli; 20 h, read-out: Range of MIC, E. coli (Mouse Serum)): 0.5 to 2 µg/mL (≈ 0.685 to 2.74 µM) | MIC (E. coli; read-out: Minimum inhibitory concentration (MIC), E. coli (Human Serum)): 4 to 16 µg/mL (≈ 5.48 to 21.9 µM) | MIC (Staph.; MRSA, read-out: Range of MIC, Staph (Mouse Serum)): 0.25 to 1 µg/mL (≈ 0.343 to 1.37 µM) | MIC (Staph.; MRSA, read-out: Range of MIC, Staph (Water)): 0.5 to 2 µg/mL (≈ 0.685 to 2.74 µM) | MIC (Staph.; read-out: Minimum inhibitory concentration (MIC), Staph (Human Serum)): 0.12 to 1 µg/mL (≈ 0.164 to 1.37 µM) | MIC (Staph.; read-out: Minimum inhibitory concentration (MIC), Staph (Water)): 0.5 to 2 µg/mL (≈ 0.685 to 2.74 µM)
Structure (SMILES): CC(C)C(=O)OCOC(=O)N(CC(=O)Nc1cc(N(C)C)c2c(c1O)C(=O)C1=C(O)[C@]3(O)C(=O)C(C(N)=O)=C(O)[C@@H](N(C)C)[C@@H]3C[C@@H]1C2)C(C)(C)C [Example 45, ({[(2-{[(5aR,6aS,7S,10aS)-9-(aminocarbonyl)-4,7-bis(dimethylamino)-1,8,10a,11-tetrahydroxy-10,12-dioxo-5,5a,6,6a,7,10,10a,12-octahydrotetracen-2-yl]amino}-2-oxoethyl)(tert-butyl)amino]carbonyl}oxy)methyl 2-methylpropanoate]
